From patent US6444850B1, “Fungicidial compounds having a fluorovinyloxphyenyl moiety and process for the preparation thereof” (priority 1997, dated 2002)

What was measured:
[1] = system: Pyricularia oryzae Carvara KA301; assay type: in vivo; conditions: for C. V. (%) RCB: 50 ppm, control value, rice blast; for C. V. (%) Fungicidal Activities against RCB at 10 ppm / C. V. (%) Fungicidal Activities against RCB at 10 ppm (TABLE 6): sprayed on Nakdong rice plant, control value from lesion area
[2] = system: Puccinia recondita; assay: Fungicidal activity against wheat leaf rust (WLR) disease; assay type: in vivo; conditions: for C. V. (%), Fungicidal Activities against WLB at 10 ppm: Table 8 (Test Example 5); for C. V. (%) WLR: 50 ppm, control value, wheat leaf rust
[3] = system: Rhizoctonia solani AG-1; assay: Fungicidal activity against rice sheath blight (RSB) disease; conditions: 50 ppm, control value
[4] = system: Phytophthora infestans; assay type: in vivo; conditions: 50 ppm; control value, tomato late blight
[5] = system: Erysiphae graminis; assay: Fungicidal activity against barley powdery mildew (BPM) disease; assay type: in vivo; conditions: for C. V. (%), Fungicidal activities against TLB at 10 ppm: Table 9 (Test Example 6); for C. V. (%) BPM: 50 ppm, control value, barley powdery mildew
[6] = system: Botrytis cinerae; assay: Fungicidal activity against cucumber gray mold rot (CGM) disease; assay type: in vivo; conditions: 50 ppm, control value

SMILES	C. V. (%) RCB [1] [%]	C. V. (%), Fungicidal Activities against WLB at 10 ppm [2] [%]	C. V. (%) WLR [2] [%]	C. V. (%) RSB [3] [%]	C. V. (%) TLB [4] [%]	C. V. (%), Fungicidal activities against TLB at 10 ppm [5] [%]	C. V. (%) BPM [5] [%]	C. V. (%) CGM [6] [%]	C. V. (%) Fungicidal Activities against RCB at 10 ppm [1] [%]	C. V. (%) Fungicidal Activities against RCB at 10 ppm (TABLE 6) [1] [%]
CON=C(C(=O)OC)c1ccccc1COc1cccc(OC(F)=C(c2cccc(C)c2)C(F)(F)F)c1 [Compound 51]	41	90	100	60	3	98	100	0		
COC=C(C(=O)OC)c1ccccc1COc1cccc(OC(F)=Cc2cccc(C)c2)c1 [Compound 6]	100	91	98	65	86	100	100	41	96	96
CNC(=O)/C(=C/OC)c1ccccc1COc1cccc(OC(F)=C(c2cc(C)cc(C)c2)C(F)(F)F)c1 [Compound 68]	0		56	0	22		0	0		
CCOc1ccc(C(=C(F)Oc2cccc(OCc3ccccc3C(=NOC)C(=O)NC)c2)C(F)(F)F)cc1 [Compound 80]	100	100	100	0	0	100	100	0	95	95
COC=C(C(=O)OC)c1ccccc1COc1cccc(OC(F)=Cc2cc(C)c(C)cc2C)c1 [Compound 21]	93	90	96	90	44		98	33		
CON=C(C(=O)OC)c1ccccc1COc1cccc(OC(F)=C(c2ccc(F)cc2)C(F)(F)F)c1 [Compound 98]	33	96	100	65	25	98	100	0		
CCc1ccc(C(=C(F)Oc2cccc(OCc3ccccc3C(=NOC)C(=O)NC)c2)C(F)(F)F)cc1 [Compound 61]	100	100	100	50	64	100	100	5	96	96
CNC(=O)C(=COC)c1ccccc1COc1cccc(OC(F)=Cc2cc(C)cc(C)c2)c1 [Compound 18]	26		0	5	6		0	21		
CCOc1ccc(C(=C(F)Oc2cccc(OCc3ccccc3C(=COC)C(=O)OC)c2)C(F)(F)F)cc1 [Compound 78]	0	97	98	40	0	100	100	0		
COC=C(C(=O)OC)c1ccccc1COc1cccc(OC(F)=Cc2cccc(F)c2)c1 [Compound 34]	99	100	98	95	75	100	100	0	100	100
CNC(=O)C(=NOC)c1ccccc1COc1cccc(OC(F)=C(c2ccc(OC)cc2)C(F)(F)F)c1 [Compound 77]	99	100	100	60	82	100	100	11	96	96
